In general, melting point refers to the temperature of the solid-liquid transition.

The source of these data is a melting point compilation (Tetko et al.; mined from patent text by program, amines drawn as free bases though some values may be those of a salt).

A value given as a limit tells only on which side of the number the result lay.

With `CCn1nc(C)c2c(O)c(C(=O)O)cnc21`, the melting point was 212 to 213 °C.

As for `COC1(c2cc(F)cc(F)c2)CCOCC1`, the melting point was found to be 100 °C.

`C1=C(c2cc3ccccc3[nH]2)Cc2ccccc21` came in with a melting point of 273 to 274 °C.

For `N#Cc1nccc2cccc(-n3cccc3)c12`, the melting point was 178 °C.

The molecule `CCOC(=O)c1nc(-c2ccc(Cl)cc2Cl)c(-c2ccc(Cl)cc2)s1` displayed a melting point of 117 to 118 °C.

`Nc1ccc(C2(C(=O)O)CC2C(=O)O)cc1` (configuration not stated) returned a melting point of 154 to 155 °C.

`N#CC(=C1CCCCCN1)c1ccccc1` had a melting point of 108 to 113 °C.

In turn, `Cc1c(F)c(N2CCC(C)(CN)C2)c(F)c2c1c(=O)c(C(=O)O)cn2C1CC1` (configuration not stated) displayed a melting point of 182 to 184 °C.

Molecule `O=CN(O)C(CO)CS(=O)(=O)c1ccc(Oc2ccc(OC(F)(F)F)cc2)cc1` (configuration not stated) returned a melting point of 115 to 117 °C.

Molecule `CNCCc1cccc(N2C(=O)N(c3c(Cl)cccc3Cl)Cc3cnc(Nc4ccccc4)nc32)c1` had a melting point of 122 to 125 °C.

In the case of `Cc1cc(N2CCN(Cc3ccc(F)cc3)C2=O)sc1C(=O)NCc1cccnc1`, the melting point was 119 to 120 °C.

Regarding `CC(O)c1ccc2occ(-c3nnn[nH]3)c(=O)c2c1` (configuration not stated), the melting point was 234 to 236 °C.

In the case of `CC(=O)Nc1ccc(C[C@H](NC(=O)N(CCO)CCc2ccccc2)C(=O)NCCN(C)C)cc1`, the melting point fell in the range of 132 to 137 °C.

In the case of `CCCCCCCCCCCCCC(O)c1nc2ncccc2o1` (configuration not stated), the melting point is 52 to 54 °C.

Take `Nc1ccccc1C(=O)C=CC(=O)O`: the melting point lay in the range of 103 to 107 °C.

In the case of `N=C(NO)C1(c2ccccc2Br)CC1`, the melting point was in the range of 164 to 167 °C.

`CCCCOC(=O)C1=C(C)NC(C)=C(C(=O)OC)C1c1cccc([N+](=O)[O-])c1` (configuration not stated) showed a melting point of 69 to 70 °C.

Consider `CN(C(=S)Nc1ccc(Cl)cc1Cl)c1cccc(C(=CCCCC(=O)O)c2cccnc2)c1`, for which the melting point lay in the range of 124 to 126 °C.

`CCOC(=O)c1c(OC(C)C)c(Br)c(Br)n1Cc1ccccc1` registered a melting point of 46 to 48 °C.

Molecule `CCCCCc1ccc(-c2ncc(-c3ccc(O)cc3)cn2)cc1` yielded a melting point of 152 to 153 °C.

In turn, `CC(=C=CC(=O)O)c1ccc(Cl)cc1` yielded a melting point of 146 to 148 °C.

`Nc1cc(NC(=O)c2cc3cc(F)ccc3n2Cc2cccc(F)c2)ccn1` had a melting point of 217 to 218 °C.

`O=C1CCCc2cc(OCCOc3ccccc3)ccc21` came in with a melting point of 109 to 113 °C.

`NC(=O)c1ccccc1-c1cc([N+](=O)[O-])ccc1-c1ccc([N+](=O)[O-])cc1` came in with a melting point of 242 to 244 °C.

`CN(C)C(=O)/C=C/c1cnc2c(NC(=O)c3c(Cl)cccc3Cl)cccc2c1` came in with a melting point of 241 to 242 °C.

`CC(=O)c1cc(Cl)c(OCCOc2ccc3ccccc3c2)c(Cl)c1` returned a melting point of 110 to 111 °C.

In turn, `CN1CCN(Cc2c(Cl)cccc2Cl)C(C2=NCCN2)C1` (configuration not stated) came in with a melting point of 182 to 184 °C.

Take `COc1cc(OC)nc(C2OC(=O)c3c(-c4cccs4)ccnc32)n1` (configuration not stated): the melting point was in the range of 120 to 123 °C.

`COc1ccc(Nc2nc(Cl)nc(Nc3ccc(OC)c(F)c3)n2)cc1F` had a melting point of 194 °C.

Molecule `CC1(C)CC(=C(c2ccccc2)c2ccc(OCCO)cc2)CC(C)(C)C1` came in with a melting point of 131 to 132 °C.

In turn, `c1ccc(Cn2nc(-c3ccco3)c3cncnc32)cc1` gave a melting point of 106 °C.

The molecule `COc1ccc2[nH]cc(C3=C(c4cc(OC)c(OC)c(OC)c4)C(=O)NC3=O)c2c1` had a melting point of 268 °C.

For the molecule `Cc1[nH]c(C(=O)NCCc2ccccn2)c(C)c1-c1nc2ccc(C(=O)c3ccccc3)cc2[nH]1`, the melting point lay in the range of 238 to 244 °C.

As to `O=c1nc(-c2cccc(Cl)c2)c2cc(C(c3ccc(Cl)cc3)n3ccnc3)ccc2[nH]1` (configuration not stated), the melting point came out at 255 °C.

For `COc1ccc(Cc2cnc(-c3ccccc3)c(-c3ccccc3)n2)cc1`, the melting point was 102 to 103 °C.

`CCOC(=O)c1c(CN(CC)CC)nc2sc3cnccc3c2c1-c1ccc(O)c(OC)c1`: the melting point fell in the range of 179 to 181 °C.

On to `CC(C)(C)C(=O)c1c[nH]c2ncc(-c3ccc(N4CCN(CCO)CC4)cc3)nc12`, for which the melting point is 211 to 213 °C.

For the molecule `CC(Oc1ccc(F)cc1Cl)c1ccnc2ncnn12` (configuration not stated), the melting point fell in the range of 89 to 91 °C.

In turn, `COc1cc(OC)cc(C(=CC#N)c2ccc3c(c2)nc(C)n3C)c1` showed a melting point of 199 to 201 °C.

The molecule `N#Cc1ncn2c1[C@@H]1CCCN1C(=O)c1c(Br)cccc1-2` displayed a melting point of 253 to 254 °C.

Turning to `CC(N)=NC(=Nc1ccccc1)N1CCOCC1`, the melting point fell in the range of 146 to 148 °C.

For `CCCCn1c(=O)c2nn(S(=O)(=O)c3c(Cl)cc(Cl)cc3Cl)cc2n(CCCC)c1=O`, the melting point lay within 89 to 92 °C.

As for `Cc1nc(NCCSCc2nc[nH]c2C)[nH]c(=O)c1CCc1ccccc1`, the melting point lay in the range of 222 to 224 °C.

For the molecule `CCOC(=O)c1ccc(CN2CCN(C3=NC4(C=CC(=O)C=C4)C(c4ccccc4)=C3)CC2)cc1`, the melting point came out at 199 °C.

`COc1ccc2nc(-c3cc(C)c(OCCO)c(C)c3)n(-c3ccc(Br)cc3)c(=O)c2c1`: the melting point lay within 160 to 162 °C.

With `CN(C)Cc1ccc(-c2csc(NC(=N)N)n2)o1`, the melting point is more than 200 °C.

In turn, `O=C(O)C1Cc2ccc(Cl)cc2NC1=O` (configuration not stated) gave a melting point of 158 to 160 °C.

In turn, `O=C1Nc2ccc(Cl)cc2Cn2nnnc21` gave a melting point of 260 to 264 °C.

`COc1ccc2nc(COc3ccc(CC(Nc4ccccc4C(=O)c4ccccc4)C(=O)O)cc3)n(C)c2c1` (configuration not stated): the melting point was in the range of 140 to 146 °C.

In the case of `COc1cc2c(cc1Cl)C(O[Si](C)(C)C)(c1ccccc1Cl)C(=O)N2` (configuration not stated), the melting point lay within 211 to 212 °C.

`CCCc1c(OCCCS(=O)(=O)c2ccc(C(=O)O)cn2)ccc(C(C)=O)c1O` registered a melting point of 177 to 179 °C.

`O=c1oc(-c2ccccc2)cc(O)c1SCc1cccc(OCc2ccccc2)c1` came in with a melting point of 140 to 141 °C.

As for `CCC(c1ccccc1)c1n[nH]c2c1c(=O)n(-c1ccccc1)c1ncccc21` (configuration not stated), the melting point was 233 to 235 °C.

`O=C(CCCCl)Nc1ccnn1-c1c(Cl)cc(C(F)(F)F)cc1Cl` registered a melting point of 103 to 104 °C.

Molecule `O=C(O)C1CCc2[nH]c3ccccc3c2C1` (configuration not stated) gave a melting point of 198 to 199 °C.

With `CNC(=NCCSCc1[nH]cnc1C)P(=O)(O)OC`, the melting point fell in the range of 170 to 171 °C.

`C=Cc1ccc(C#N)cn1` displayed a melting point of 29 to 30 °C.

As to `Cc1cc(I)cc(CO)c1N`, the melting point was 101 to 103 °C.

Molecule `O=C(CNC(=O)C(Cc1ccc(OCc2ccccc2)cc1)NC(=O)OCc1ccccc1)Nc1n[nH]c(=S)s1` (configuration not stated) gave a melting point of 201 to 202 °C.

For `Cn1cccc1CCNc1nc(-c2cccnc2)nc2ccccc12`, the melting point is 140 to 142 °C.

On to `Cc1oc(-c2ccccc2)nc1COc1ccc(Cn2cc(CCC(=O)O)c(Oc3ccc(C(F)(F)F)cn3)n2)cc1`, for which the melting point lay in the range of 107 to 108 °C.

Molecule `CCCOCCOc1ccc(-c2ccc3c(c2)C=C(C(=O)Nc2ccc(CN(C)C4CCOCC4)cc2)CCS3(=O)=O)cc1OCC` yielded a melting point of 171 to 172 °C.

Regarding `CCCOc1ccc(S(=O)(=O)Nc2ccc3[nH]ncc3c2)cc1-c1nc2cc(N)c([N+](=O)[O-])cc2c(=O)[nH]1`, the melting point lay in the range of 261 to 263 °C.

Molecule `O=C(C=C(c1ccccc1Cl)n1cncn1)c1ccccc1` showed a melting point of 79 to 81 °C.

Molecule `O=c1[nH]c2cc(Cl)c([N+](=O)[O-])c(Cl)c2[nH]c1=O` displayed a melting point of 320 to 325 °C.

In turn, `CCOC(=O)C1=C(C)NC(C(OCC)OCC)=C(C(=O)OCC)C1c1ccccc1[N+](=O)[O-]` (configuration not stated) had a melting point of 80 to 81.5 °C.

The molecule `CN1CCN(S(=O)(=O)c2ccc(Nc3ncnc4cc(Cl)ccc34)cc2)CC1` came in with a melting point of 237 to 239 °C.

Molecule `O=c1c2c[nH]c3cccnc3c-2nn1-c1ccccc1` yielded a melting point of 314 to 316 °C.

In turn, `COC(=O)c1cncn1C1c2ccccc2C(Br)(Br)C1(C)C` (configuration not stated) registered a melting point of 138 °C.

In turn, `O=C(Nc1nc2ccccc2n1CCCN1CCNCC1)c1ccc(C(F)(F)F)cc1` showed a melting point of 184 to 185 °C.

As for `CN1C(=O)C(Cc2ccccc2)N(C)C(=O)C1=Cc1c(C#N)ccc(F)c1F` (configuration not stated), the melting point was found to be 175 °C.

For the molecule `COc1cccc(Cn2cnc3c(-c4ccco4)nc(Cl)nc32)c1`, the melting point was 160 to 161 °C.

The molecule `O=C(O)c1cc(S(=O)(=O)N2CCC(Br)C(Br)C2)ccc1Cl` (configuration not stated) returned a melting point of 176 to 178 °C.

Turning to `Cc1nccn1-c1cccc(Nc2ccc(I)cc2[N+](=O)[O-])c1`, the melting point is 135 to 136 °C.

On to `CC(C)(C)OC(=O)C[C@@H](NS(=O)(=O)c1ccc2c(Cl)cnc(Cl)c2c1)C(=O)OC(C)(C)C`, for which the melting point was 106 to 110 °C.

As to `COc1ccc(CN2C(=O)[C@@H](N3C(=O)c4ccccc4C3=O)[C@H]2/C=C/c2ccccc2)c(OC)c1` (relative stereo), the melting point is 173 to 177 °C.

In turn, `CCN1C(=O)Cc2cc3c(cc21)C(O)CO3` (configuration not stated) displayed a melting point of 144 to 145 °C.

`CC(C)OC(=O)C=CC(=O)NC(N)=O`: the melting point was in the range of 113 to 114 °C.

As to `Cc1[nH]cnc1/C=C/C(=O)c1cc2ccccc2n1C`, the melting point was 222 to 224 °C.

With `CC(=O)C(C(C)=O)C(C(C)=O)C(C)=O`, the melting point is 193 to 194 °C.

With `Cc1nc(NC(=O)C2CC2)sc1C(=O)NCc1ccccc1`, the melting point fell in the range of 241 to 243 °C.

Turning to `Nc1ccc(OC2=C(Oc3ccc(N)cc3)C(F)(F)C(F)(F)C2(F)F)cc1`, the melting point was in the range of 78 to 83 °C.

The molecule `CC(=O)OC1CCC2(C)C(CCC3C2CCC2(C)C(N)C(O)CC32)C1` (configuration not stated) had a melting point of 192 to 193 °C.

Turning to `CCCCCCCCCc1ccc(C(CCCCC(=O)O)SCCC(=O)O)cc1` (configuration not stated), the melting point was in the range of 61 to 62 °C.

The molecule `Cn1c(CN2C(=O)C3(COc4cc5c(cc43)CCO5)c3ccccc32)nc2ccccc21` (configuration not stated) registered a melting point of 244 to 246 °C.

Turning to `CN(C)C(=O)c1c(C(=O)NN=Cc2ccc3ccccc3c2)[nH]c2ccccc12`, the melting point lay in the range of 256 to 260 °C.

Take `CS(=O)(=O)NC(=O)NCCCc1ccc2c(NC(=O)CC3CCCCC3)c(Cl)ccc2n1`: the melting point fell in the range of 151 to 152 °C.
